melting point	Structure (SMILES)
221 °C	CC(C)(CO)NS(=O)(=O)c1cccc(-c2cc(-c3nc(-c4ccc(C(F)(F)F)cc4)cc(C(F)(F)F)n3)ccn2)c1 [Example 382, N-(2-Hydroxy-1,1-dimethyl-ethyl)-3-{4-[4-trifluoromethyl-6-(4-trifluoromethyl-phenyl)-pyrimidin-2-yl]-pyridin-2-yl}-benzenesulfonamide]
186 °C	O=S(=O)(c1cccc(-c2cc(-c3nc(-c4ccc(C(F)(F)F)cc4)cc(C(F)(F)F)n3)ccn2)c1)N(CCO)CCO [Example 383, N,N-Bis-(2-hydroxy-ethyl)-3-{4-[4-trifluoromethyl-6-(4-trifluoromethyl-phenyl)-pyrimidin-2-yl]-pyridin-2-yl}-benzenesulfonamide]
228 °C	NS(=O)(=O)c1ccc(-c2cn(-c3nc(-c4ccc(F)c(F)c4)cc(C(F)(F)F)n3)cn2)s1 [Example 385, 5-{1-[4-(3,4-Difluoro-phenyl)-6-trifluoromethyl-pyrimidin-2-yl]-1H-imidazol-4-yl}-thiophene-2-sulfonic acid amide]
244.5 °C	NS(=O)(=O)c1ccc(-c2cn(-c3nc(-c4ccc(F)cc4)cc(C(F)(F)F)n3)cn2)s1 [Example 386, 5-{1-[4-(4-Fluoro-phenyl)-6-trifluoromethyl-pyrimidin-2-yl]-1H-imidazol-4-yl}-thiophene-2-sulfonic acid amide]
260 °C	NS(=O)(=O)c1cccc(-c2cn(-c3nc(-c4ccc(F)cc4)cc(C(F)(F)F)n3)cn2)c1 [Example 387, 3-{1-[4-(4-Fluoro-phenyl)-6-trifluoromethyl-pyrimidin-2-yl]-1H-imidazol-4-yl}-benzenesulfonamide]
238 °C	NS(=O)(=O)c1ccc(-c2cccc(-c3nc(-c4ccc(F)c(F)c4)cc(C(F)(F)F)n3)c2)s1 [Example 388, 5-{3-[4-(3,4-Difluoro-phenyl)-6-trifluoromethyl-pyrimidin-2-yl]-phenyl}-thiophene-2-sulfonic acid amide]
153 °C	O=S(=O)(NCCO)c1cccc(-c2cccc(-c3nc(-c4ccc(C(F)(F)F)cc4)cc(C(F)(F)F)n3)c2)c1 [Example 391, 3′-[4-Trifluoromethyl-6-(4-trifluoromethyl-phenyl)-pyrimidin-2-yl]-biphenyl-3-sulfonic acid (2-hydroxy-ethyl)-amide]
111.5 °C	O=S(=O)(c1cccc(-c2cccc(-c3nc(-c4ccc(C(F)(F)F)cc4)cc(C(F)(F)F)n3)c2)c1)N(CCO)CCO [Example 392, 3′-[4-Trifluoromethyl-6-(4-trifluoromethyl-phenyl)-pyrimidin-2-yl]-biphenyl-3-sulfonic acid bis-(2-hydroxy-ethyl)-amide]
211 °C	NS(=O)(=O)c1cccc(-c2cccc(-c3nc(-c4ccc(F)c(F)c4)cc(C(F)(F)F)n3)c2)c1 [Example 393, 3′-[4-(3,4-Difluoro-phenyl)-6-trifluoromethyl-pyrimidin-2-yl]-biphenyl-3-sulfonic acid amide]
228.5 °C	NS(=O)(=O)c1ccc(-c2cccc(-c3nc(-c4ccc(F)cc4)cc(C(F)(F)F)n3)c2)s1 [Example 395, 5-{3-[4-(4-Fluoro-phenyl)-6-trifluoromethyl-pyrimidin-2-yl]-phenyl}-thiophene-2-sulfonic acid amide]
241.5 °C	NS(=O)(=O)c1cccc(-c2cn(-c3nc(-c4ccc(F)c(F)c4)cc(C(F)(F)F)n3)cn2)c1 [Example 396, 3-{1-[4-(3,4-Difluoro-phenyl)-6-trifluoromethyl-pyrimidin-2-yl]-1H-imidazol-4-yl}-benzenesulfonamide]
282 °C	NS(=O)(=O)c1ccc(-c2cc(-c3nc(-c4ccc(F)cc4)cc(C(F)(F)F)n3)ccn2)s1 [Example 397, 5-{4-[4-(4-Fluoro-phenyl)-6-trifluoromethyl-pyrimidin-2-yl]-pyridin-2-yl}-thiophene-2-sulfonic acid amide]
239.5 °C	NS(=O)(=O)c1cccc(-c2cc(-c3nc(-c4ccc(F)cc4)cc(C(F)(F)F)n3)ccn2)c1 [Example 398, 3-{4-[4-(4-Fluoro-phenyl)-6-trifluoromethyl-pyrimidin-2-yl]-pyridin-2-yl}-benzenesulfonamide]
281 °C	NS(=O)(=O)c1ccc(-c2cc(-c3nc(-c4ccc(F)c(F)c4)cc(C(F)(F)F)n3)ccn2)s1 [Example 399, 5-{4-[4-(3,4-Difluoro-phenyl)-6-trifluoromethyl-pyrimidin-2-yl]-pyridin-2-yl}-thiophene-2-sulfonic acid amide]
233.5 °C	NS(=O)(=O)c1cccc(-c2cc(-c3nc(-c4ccc(F)c(F)c4)cc(C(F)(F)F)n3)ccn2)c1 [Example 400, 3-{4-[4-(3,4-Difluoro-phenyl)-6-trifluoromethyl-pyrimidin-2-yl]-pyridin-2-yl}-benzenesulfonamide]
225 °C	CN(C)S(=O)(=O)c1cccc(-c2cc(-c3nc(-c4ccc(C(F)(F)F)cc4)cc(C(F)(F)F)n3)ccn2)c1 [Example 401, N,N-Dimethyl-3-{4-[4-trifluoromethyl-6-(4-trifluoromethyl-phenyl)-pyrimidin-2-yl]-pyridin-2-yl}-benzenesulfonamide]
174 °C	CNS(=O)(=O)c1cccc(-c2cc(-c3nc(-c4ccc(C(F)(F)F)cc4)cc(C(F)(F)F)n3)ccn2)c1 [Example 402, N-Methyl-3-{4-[4-trifluoromethyl-6-(4-trifluoromethyl-phenyl)-pyrimidin-2-yl]-pyridin-2-yl}-benzenesulfonamide]
144 °C	CC(C)CN(C)S(=O)(=O)c1cccc(-c2cc(-c3nc(-c4ccc(C(F)(F)F)cc4)cc(C(F)(F)F)n3)ccn2)c1 [Example 403, N-Isobutyl-N-methyl-3-{4-[4-trifluoromethyl-6-(4-trifluoromethyl-phenyl)-pyrimidin-2-yl]-pyridin-2-yl}-benzenesulfonamide]
144 °C	CCCN(C)S(=O)(=O)c1cccc(-c2cc(-c3nc(-c4ccc(C(F)(F)F)cc4)cc(C(F)(F)F)n3)ccn2)c1 [Example 404, N-Methyl-N-propyl-3-{4-[4-trifluoromethyl-6-(4-trifluoromethyl-phenyl)-pyrimidin-2-yl]-pyridin-2-yl}-benzenesulfonamide]
202.5 °C	O=S(=O)(NCc1ccccc1)c1cccc(-c2cc(-c3nc(-c4ccc(C(F)(F)F)cc4)cc(C(F)(F)F)n3)ccn2)c1 [Example 405, N-Benzyl-3-{4-[4-trifluoromethyl-6-(4-trifluoromethyl-phenyl)-pyrimidin-2-yl]-pyridin-2-yl}-benzenesulfonamide]
201 °C	O=S(=O)(NCCc1ccccc1)c1cccc(-c2cc(-c3nc(-c4ccc(C(F)(F)F)cc4)cc(C(F)(F)F)n3)ccn2)c1 [Example 406, N-Phenethyl-3-{4-[4-trifluoromethyl-6-(4-trifluoromethyl-phenyl)-pyrimidin-2-yl]-pyridin-2-yl}-benzenesulfonamide]
133.5 °C	O=S(=O)(NCC1CC1)c1cccc(-c2cc(-c3nc(-c4ccc(C(F)(F)F)cc4)cc(C(F)(F)F)n3)ccn2)c1 [Example 408, N-Cyclopropylmethyl-3-{4-[4-trifluoromethyl-6-(4-trifluoromethyl-phenyl)-pyrimidin-2-yl]-pyridin-2-yl}-benzenesulfonamide]

Source: patent US8183262B2, “Pyridine derivatives as mGluR2 antagonists” (Hoffmann-La Roche Inc., priority 2007, dated 2012)
